# Data taken from article PMC12251226, “Comparison of in silico predictions of action potential duration in response to inhibition of IKr and ICaL with new human ex vivo recordings” (PLOS Computational Biology, 2025).
# Where two headings read alike, the source gives them in different places.
# How the values were obtained:
# CaV1.2 channels [1] = molecular target: T1, CaV1.2 channels (Homo sapiens, UniProt Q13936); conditions: CaV1.2, CHO cells, Pharm protocol
# CaV1.2 channels [2] = molecular target: T1, CaV1.2 channels; conditions: CaV1.2, CHO cells, CiPA protocol
# [3] = tested on: adult human ventricular trabeculae; assay: Ex vivo sharp electrode action potential recording (APD90) in ventricular trabeculae, 1 Hz pacing; conditions: for Change in APD90 (in words): over the tested concentrations; for Mean ΔAPD90 (SEM): 25 min steady 1 Hz pacing
# hERG channels [4] = molecular target: T2, hERG channels (Homo sapiens, UniProt Q12809); assay: Automated patch clamp, IKr CiPA protocol, CHO cells; type: cell-based; parameters: expressed in transfected cells; host or cells: CHO (crelox)
# T2 sequence (Q12809 whole entry): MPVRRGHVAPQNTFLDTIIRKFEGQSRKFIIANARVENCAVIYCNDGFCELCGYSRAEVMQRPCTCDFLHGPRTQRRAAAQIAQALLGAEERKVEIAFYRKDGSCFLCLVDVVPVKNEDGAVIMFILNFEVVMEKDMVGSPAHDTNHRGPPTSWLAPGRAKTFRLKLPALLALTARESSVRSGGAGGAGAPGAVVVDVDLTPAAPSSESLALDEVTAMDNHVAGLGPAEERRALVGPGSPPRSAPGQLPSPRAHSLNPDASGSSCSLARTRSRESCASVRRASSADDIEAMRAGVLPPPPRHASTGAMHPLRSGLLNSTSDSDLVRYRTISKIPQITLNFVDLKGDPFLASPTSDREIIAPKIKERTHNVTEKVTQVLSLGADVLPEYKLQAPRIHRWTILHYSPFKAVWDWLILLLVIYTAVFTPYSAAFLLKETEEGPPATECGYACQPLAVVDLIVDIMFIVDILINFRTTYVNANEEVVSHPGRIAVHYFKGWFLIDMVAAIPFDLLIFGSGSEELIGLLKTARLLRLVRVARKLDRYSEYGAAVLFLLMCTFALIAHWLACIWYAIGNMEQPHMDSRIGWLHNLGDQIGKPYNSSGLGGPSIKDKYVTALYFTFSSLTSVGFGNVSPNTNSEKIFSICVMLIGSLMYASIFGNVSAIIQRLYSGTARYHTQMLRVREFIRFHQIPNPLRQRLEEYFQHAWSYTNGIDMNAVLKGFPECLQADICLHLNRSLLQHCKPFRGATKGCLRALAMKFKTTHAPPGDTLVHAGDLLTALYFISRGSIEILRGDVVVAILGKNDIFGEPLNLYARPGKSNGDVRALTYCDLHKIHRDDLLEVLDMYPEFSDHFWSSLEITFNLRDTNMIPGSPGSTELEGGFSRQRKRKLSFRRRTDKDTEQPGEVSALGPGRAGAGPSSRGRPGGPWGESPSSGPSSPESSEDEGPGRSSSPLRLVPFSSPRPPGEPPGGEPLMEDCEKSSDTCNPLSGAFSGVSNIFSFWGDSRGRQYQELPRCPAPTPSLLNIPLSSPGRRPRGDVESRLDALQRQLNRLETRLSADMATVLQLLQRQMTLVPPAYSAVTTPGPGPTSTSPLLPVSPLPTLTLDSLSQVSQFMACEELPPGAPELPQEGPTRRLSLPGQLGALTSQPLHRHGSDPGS
# CaV1.2 (ICaL) = CaV1.2 (ICaL) (Homo sapiens, UniProt Q13936); assay: in vitro; conditions: CHO cells expressing human CaV1.2/β2/α2δ
# hERG (IKr) = hERG (IKr) (Homo sapiens, UniProt Q12809); assay: Automated patch clamp, IKr Pharm (Roche in-house) protocol, CHO cells; conditions: human
# hERG = conditions: cited from earlier work
# CaV1.2 channels [5] = molecular target: T1, CaV1.2 channels; assay: cell-based
# CaV1.2 channels [6] = molecular target: T1, CaV1.2 channels; assay: cell-based; remark: listed apart in the source
# hERG channels [7] = molecular target: T2, hERG channels; assay: Automated patch clamp, IKr Pharm (Roche in-house) protocol, CHO cells; conditions: hERG, CHO cells, Pharm protocol
# T1 sequence (Q13936 whole entry): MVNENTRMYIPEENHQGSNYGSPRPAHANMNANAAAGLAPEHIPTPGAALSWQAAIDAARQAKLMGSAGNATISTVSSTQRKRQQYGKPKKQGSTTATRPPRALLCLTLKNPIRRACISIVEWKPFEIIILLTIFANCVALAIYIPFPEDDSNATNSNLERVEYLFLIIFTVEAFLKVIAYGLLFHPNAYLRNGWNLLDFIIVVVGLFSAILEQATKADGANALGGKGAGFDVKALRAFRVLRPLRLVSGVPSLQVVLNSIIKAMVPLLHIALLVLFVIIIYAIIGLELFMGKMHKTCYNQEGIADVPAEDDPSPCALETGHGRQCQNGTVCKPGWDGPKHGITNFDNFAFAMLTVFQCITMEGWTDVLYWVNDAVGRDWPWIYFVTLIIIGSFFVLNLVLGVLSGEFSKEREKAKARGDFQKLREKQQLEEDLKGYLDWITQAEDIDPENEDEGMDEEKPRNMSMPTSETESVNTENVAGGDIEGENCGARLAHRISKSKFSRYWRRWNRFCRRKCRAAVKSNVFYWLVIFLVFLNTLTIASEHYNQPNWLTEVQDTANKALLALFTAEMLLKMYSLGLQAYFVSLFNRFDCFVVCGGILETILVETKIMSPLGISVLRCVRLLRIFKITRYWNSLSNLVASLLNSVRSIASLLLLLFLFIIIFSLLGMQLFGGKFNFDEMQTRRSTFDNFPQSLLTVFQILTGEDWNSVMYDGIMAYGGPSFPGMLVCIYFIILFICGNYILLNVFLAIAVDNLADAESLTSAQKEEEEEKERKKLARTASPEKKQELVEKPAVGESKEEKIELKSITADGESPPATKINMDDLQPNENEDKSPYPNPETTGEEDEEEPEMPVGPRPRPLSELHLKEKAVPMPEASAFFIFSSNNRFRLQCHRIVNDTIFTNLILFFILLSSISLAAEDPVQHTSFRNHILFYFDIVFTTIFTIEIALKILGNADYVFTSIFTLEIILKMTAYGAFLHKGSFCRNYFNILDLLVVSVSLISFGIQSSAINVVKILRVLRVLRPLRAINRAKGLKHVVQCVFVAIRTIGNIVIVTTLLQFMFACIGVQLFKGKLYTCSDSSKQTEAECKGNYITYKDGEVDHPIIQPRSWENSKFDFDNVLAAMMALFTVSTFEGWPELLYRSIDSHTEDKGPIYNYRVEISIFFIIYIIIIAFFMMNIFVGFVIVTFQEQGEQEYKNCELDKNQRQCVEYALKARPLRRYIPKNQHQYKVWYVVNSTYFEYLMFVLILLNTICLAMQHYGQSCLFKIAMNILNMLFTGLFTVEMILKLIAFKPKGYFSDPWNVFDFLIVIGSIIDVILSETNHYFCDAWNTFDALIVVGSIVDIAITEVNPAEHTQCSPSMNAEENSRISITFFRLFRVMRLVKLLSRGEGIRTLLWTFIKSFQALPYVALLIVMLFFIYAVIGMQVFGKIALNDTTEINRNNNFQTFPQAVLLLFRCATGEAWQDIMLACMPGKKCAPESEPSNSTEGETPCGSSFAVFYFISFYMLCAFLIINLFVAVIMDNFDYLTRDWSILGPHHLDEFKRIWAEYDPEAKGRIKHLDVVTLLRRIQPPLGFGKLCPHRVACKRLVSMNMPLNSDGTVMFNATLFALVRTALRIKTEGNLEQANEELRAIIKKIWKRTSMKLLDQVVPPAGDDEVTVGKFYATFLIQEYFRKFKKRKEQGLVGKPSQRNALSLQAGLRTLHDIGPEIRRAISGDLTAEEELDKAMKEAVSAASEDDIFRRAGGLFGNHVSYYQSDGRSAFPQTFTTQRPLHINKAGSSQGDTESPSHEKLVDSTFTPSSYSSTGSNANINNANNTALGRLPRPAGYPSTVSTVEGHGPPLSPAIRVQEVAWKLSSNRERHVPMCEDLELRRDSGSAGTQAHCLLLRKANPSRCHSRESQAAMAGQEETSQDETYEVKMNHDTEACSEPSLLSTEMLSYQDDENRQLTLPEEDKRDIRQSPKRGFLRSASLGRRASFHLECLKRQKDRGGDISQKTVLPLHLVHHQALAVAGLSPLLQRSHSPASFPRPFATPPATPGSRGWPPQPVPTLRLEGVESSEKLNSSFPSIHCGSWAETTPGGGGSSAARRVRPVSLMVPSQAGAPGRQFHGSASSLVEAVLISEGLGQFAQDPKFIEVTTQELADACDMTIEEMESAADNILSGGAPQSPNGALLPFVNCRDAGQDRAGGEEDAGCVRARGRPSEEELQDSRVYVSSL
# T1 sequence (Q08289 whole entry partner): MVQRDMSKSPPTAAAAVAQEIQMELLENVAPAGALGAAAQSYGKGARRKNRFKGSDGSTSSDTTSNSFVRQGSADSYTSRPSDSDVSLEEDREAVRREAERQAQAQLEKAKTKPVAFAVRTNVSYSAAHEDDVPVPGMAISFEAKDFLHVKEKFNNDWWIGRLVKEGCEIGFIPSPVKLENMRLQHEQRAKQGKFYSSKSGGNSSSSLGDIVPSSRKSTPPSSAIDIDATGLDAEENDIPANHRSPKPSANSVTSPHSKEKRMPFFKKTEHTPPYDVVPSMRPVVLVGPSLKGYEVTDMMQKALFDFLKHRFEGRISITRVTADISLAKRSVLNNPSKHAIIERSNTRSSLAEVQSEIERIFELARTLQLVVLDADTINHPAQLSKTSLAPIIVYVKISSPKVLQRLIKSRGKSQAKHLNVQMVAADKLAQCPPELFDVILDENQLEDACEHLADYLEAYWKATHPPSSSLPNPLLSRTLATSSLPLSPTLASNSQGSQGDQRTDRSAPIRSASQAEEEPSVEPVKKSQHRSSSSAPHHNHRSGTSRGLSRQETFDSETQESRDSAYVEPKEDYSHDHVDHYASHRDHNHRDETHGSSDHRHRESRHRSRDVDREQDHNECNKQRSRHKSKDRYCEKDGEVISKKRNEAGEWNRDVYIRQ
# T1 sequence (P54289 25-956 partner limits assumed): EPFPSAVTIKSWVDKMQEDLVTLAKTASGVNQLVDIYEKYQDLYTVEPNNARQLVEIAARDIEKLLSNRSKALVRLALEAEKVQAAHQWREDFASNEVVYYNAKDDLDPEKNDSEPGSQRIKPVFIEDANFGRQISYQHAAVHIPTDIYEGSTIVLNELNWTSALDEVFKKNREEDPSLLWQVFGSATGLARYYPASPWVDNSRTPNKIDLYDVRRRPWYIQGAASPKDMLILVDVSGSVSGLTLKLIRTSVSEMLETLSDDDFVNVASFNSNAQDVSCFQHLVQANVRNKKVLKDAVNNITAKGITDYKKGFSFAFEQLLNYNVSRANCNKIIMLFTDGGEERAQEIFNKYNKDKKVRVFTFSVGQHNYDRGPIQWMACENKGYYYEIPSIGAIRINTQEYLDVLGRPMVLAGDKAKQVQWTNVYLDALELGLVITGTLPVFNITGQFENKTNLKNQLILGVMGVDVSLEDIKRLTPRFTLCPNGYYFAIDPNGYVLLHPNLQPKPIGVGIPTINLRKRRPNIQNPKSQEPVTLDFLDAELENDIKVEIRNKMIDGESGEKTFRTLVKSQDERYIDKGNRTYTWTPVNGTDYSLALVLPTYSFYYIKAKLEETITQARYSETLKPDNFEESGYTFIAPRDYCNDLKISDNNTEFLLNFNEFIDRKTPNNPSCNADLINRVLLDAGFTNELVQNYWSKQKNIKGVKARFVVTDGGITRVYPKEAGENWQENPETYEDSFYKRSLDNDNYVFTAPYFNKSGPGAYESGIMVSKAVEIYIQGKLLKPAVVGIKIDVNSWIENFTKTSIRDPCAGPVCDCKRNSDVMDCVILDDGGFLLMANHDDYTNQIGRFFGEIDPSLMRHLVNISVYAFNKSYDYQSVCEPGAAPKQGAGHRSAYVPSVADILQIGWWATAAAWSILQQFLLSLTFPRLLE
# T1 sequence (P54289 957-1103 partner limits assumed): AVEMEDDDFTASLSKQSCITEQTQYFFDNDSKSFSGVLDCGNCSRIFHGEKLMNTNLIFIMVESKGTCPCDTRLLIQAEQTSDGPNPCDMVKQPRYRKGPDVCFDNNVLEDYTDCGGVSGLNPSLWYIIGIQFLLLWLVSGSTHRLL
smiles,measurement,setting,value
CN(C)CCCN1c2ccccc2Sc2ccc(Cl)cc21 [Chlorpromazine],ICaL Pharm Hill coefficient h,CaV1.2 channels [1],0.88
same,ICaL CiPA Hill coefficient h,CaV1.2 channels [2],0.93
same,Change in APD90 (in words),[3],little or no change in APD90
CN1CCN(C2=Nc3cc(Cl)ccc3Nc3ccccc32)CC1 [Clozapine],IKr CiPA Hill coefficient h,hERG channels [4]; human,0.94
same,inhibition at 3 µM,CaV1.2 (ICaL),59%
same,inhibition at 3 µM,hERG (IKr),57%
same,Change in APD90 (in words),[3],little or no change in APD90
CNCCC(Oc1ccc(C(F)(F)F)cc1)c1ccccc1 (centres unmarked) [Fluoxetine],ICaL Pharm Hill coefficient h,CaV1.2 channels [1],0.94
same,ICaL CiPA Hill coefficient h,CaV1.2 channels [2],0.90
same,Mean ΔAPD90 (SEM),[3]; nominal drug conc 3 μM,–2 (5) ms
same,Change in APD90 (in words),[3],little or no change in APD90
CN1CCCCC1CCN1c2ccccc2Sc2ccc([S+](C)[O-])cc21 (centres unmarked) [Mesoridazine],IKr CiPA Hill coefficient h,"hERG channels [4]; hERG, CHO cells, CiPA protocol",0.74
same,IC50,CaV1.2 channels [5],3960 nM
same,ICaL Pharm Hill coefficient h,CaV1.2 channels [1],0.76
same,IC50,CaV1.2 channels [6],4060 nM
same,ICaL CiPA Hill coefficient h,CaV1.2 channels [2],0.83
same,IKr Pharm Hill coefficient h,hERG channels [7],1
same,Mean ΔAPD90 (SEM),[3]; nominal drug conc 0.04 μM,–2 (7) ms
same,Change in APD90 (in words),[3],little or no change in APD90
COC(=O)C1=C(C)NC(C)=C(C(=O)OC)C1c1ccccc1[N+](=O)[O-] [Nifedipine],Mean ΔAPD90 (SEM),[3]; nominal drug conc 0.03 μM,–5 (6) ms
same,Mean ΔAPD90 (SEM),[3]; nominal drug conc 0.3 μM,–24 (6) ms
COc1ccc(CCN(C)CCCC(C#N)(c2ccc(OC)c(OC)c2)C(C)C)cc1OC (centres unmarked) [Verapamil],Mean ΔAPD90 (SEM),[3]; nominal drug conc 0.01 μM,–15 (4) ms
same,Mean ΔAPD90 (SEM),[3]; nominal drug conc 0.1 μM,–19 (5) ms
same,Change in APD90 (in words),[3],substantially shortened APD90
